Data from the NIST ThermoML archive (doi:10.1021/je9008574).
Several values for one entry are separate records, joined by “and”; a condition that tells them apart may be missing. Identical values can stand only once. ± gives the expanded uncertainty stated by the source.

Conditions: Crystal

[Cl-].[Cl-].[Ga+2] [gallium(II) chloride]
Conditions | vapor or sublimation pressure
372 K | 4.571e-05 ± 9.2e-06 kPa
374 K | 3.09e-05 ± 6.2e-06 kPa
375 K | 6.166e-05 ± 1.2e-05 kPa and 4.571e-05 ± 9.2e-06 kPa and 3.388e-05 ± 6.8e-06 kPa
378 K | 4.571e-05 ± 9.2e-06 kPa
378.5 K | 6.166e-05 ± 1.2e-05 kPa
379 K | 9.12e-05 ± 1.8e-05 kPa
381 K | 7.762e-05 ± 1.6e-05 kPa
381.5 K | 6.761e-05 ± 1.4e-05 kPa
382.5 K | 9.12e-05 ± 1.8e-05 kPa
383.5 K | 0.0001202 ± 2.4e-05 kPa
384 K | 0.0001202 ± 2.4e-05 kPa and 0.000123 ± 2.5e-05 kPa
385 K | 0.0001072 ± 2.2e-05 kPa
386 K | 0.0001514 ± 3e-05 kPa and 0.0001778 ± 3.6e-05 kPa
386.5 K | 0.000123 ± 2.5e-05 kPa and 0.0001023 ± 2.1e-05 kPa
387 K | 0.0001862 ± 3.7e-05 kPa
387.5 K | 0.000123 ± 2.5e-05 kPa
388.5 K | 0.0001778 ± 3.6e-05 kPa
389 K | 0.0002089 ± 4.2e-05 kPa
390 K | 0.0002399 ± 4.8e-05 kPa
390.5 K | 0.0001549 ± 3.1e-05 kPa
391 K | 0.0001698 ± 3.4e-05 kPa and 0.0001862 ± 3.7e-05 kPa
391.5 K | 0.0002399 ± 4.8e-05 kPa and 0.0002754 ± 5.5e-05 kPa
392 K | 0.000302 ± 6e-05 kPa
393 K | 0.0001862 ± 3.7e-05 kPa
393.5 K | 0.000302 ± 6.1e-05 kPa
394 K | 0.0002455 ± 4.9e-05 kPa and 0.0003311 ± 6.6e-05 kPa and 0.0002138 ± 4.3e-05 kPa
395 K | 0.0002754 ± 5.5e-05 kPa
396 K | 0.0002951 ± 5.9e-05 kPa
396.5 K | 0.000309 ± 6.2e-05 kPa
397.5 K | 0.000389 ± 7.8e-05 kPa and 0.0005248 ± 0.00011 kPa
398 K | 0.0002951 ± 5.9e-05 kPa and 0.0004169 ± 8.3e-05 kPa and 0.0004467 ± 8.9e-05 kPa
398.5 K | 0.0004786 ± 9.6e-05 kPa
399 K | 0.0003388 ± 6.8e-05 kPa and 0.0004786 ± 9.6e-05 kPa
399.5 K | 0.0003802 ± 7.6e-05 kPa and 0.0003981 ± 8e-05 kPa and 0.000302 ± 6.1e-05 kPa
401 K | 0.0005129 ± 0.0001 kPa
402 K | 0.0007244 ± 0.00014 kPa and 0.0007413 ± 0.00015 kPa
402.5 K | 0.0006607 ± 0.00013 kPa and 0.000389 ± 7.8e-05 kPa
403 K | 0.0006607 ± 0.00013 kPa and 0.0004786 ± 9.6e-05 kPa
403.5 K | 0.0005495 ± 0.00011 kPa
404 K | 0.0007762 ± 0.00016 kPa
405 K | 0.0006761 ± 0.00014 kPa and 0.0005888 ± 0.00012 kPa
405.5 K | 0.0007762 ± 0.00016 kPa
406 K | 0.000955 ± 0.00019 kPa and 0.0006761 ± 0.00014 kPa
406.5 K | 0.0008913 ± 0.00018 kPa
407.5 K | 0.000955 ± 0.00019 kPa and 0.0007762 ± 0.00016 kPa
408 K | 0.0007079 ± 0.00014 kPa
409 K | 0.0007762 ± 0.00016 kPa and 0.001023 ± 0.0002 kPa and 0.0007079 ± 0.00014 kPa
410 K | 0.001202 ± 0.00024 kPa
410.5 K | 0.000871 ± 0.00017 kPa and 0.001259 ± 0.00025 kPa and 0.001072 ± 0.00021 kPa
411 K | 0.001023 ± 0.0002 kPa
411.5 K | 0.001318 ± 0.00026 kPa and 0.001549 ± 0.00031 kPa
413 K | 0.0009772 ± 0.0002 kPa and 0.001445 ± 0.00029 kPa
413.5 K | 0.001514 ± 0.0003 kPa and 0.001445 ± 0.00029 kPa
414 K | 0.001202 ± 0.00024 kPa and 0.001259 ± 0.00025 kPa and 0.001072 ± 0.00021 kPa
414.5 K | 0.001288 ± 0.00026 kPa
415 K | 0.002138 ± 0.00043 kPa
415.5 K | 0.001259 ± 0.00025 kPa and 0.001905 ± 0.00038 kPa and 0.001862 ± 0.00037 kPa
416 K | 0.001413 ± 0.00028 kPa and 0.001778 ± 0.00036 kPa
416.5 K | 0.001905 ± 0.00038 kPa and 0.001549 ± 0.00031 kPa and 0.001288 ± 0.00026 kPa
417 K | 0.001585 ± 0.00032 kPa and 0.001549 ± 0.00031 kPa
417.5 K | 0.002089 ± 0.00042 kPa and 0.001698 ± 0.00034 kPa
418 K | 0.002138 ± 0.00043 kPa
418.5 K | 0.002399 ± 0.00048 kPa
419 K | 0.002399 ± 0.00048 kPa and 0.002138 ± 0.00043 kPa
420 K | 0.00195 ± 0.00039 kPa and 0.00263 ± 0.00053 kPa
421 K | 0.003388 ± 0.00068 kPa and 0.002138 ± 0.00043 kPa
421.5 K | 0.002138 ± 0.00043 kPa and 0.00302 ± 0.0006 kPa and 0.002951 ± 0.00059 kPa
422 K | 0.002138 ± 0.00043 kPa and 0.002344 ± 0.00047 kPa
422.5 K | 0.003236 ± 0.00065 kPa and 0.00302 ± 0.0006 kPa
423.5 K | 0.002291 ± 0.00046 kPa
424 K | 0.003802 ± 0.00076 kPa
424.5 K | 0.002512 ± 0.0005 kPa and 0.002818 ± 0.00056 kPa
425.5 K | 0.004266 ± 0.00085 kPa
426 K | 0.003981 ± 0.0008 kPa [middle of 5 runs]
427 K | 0.002754 ± 0.00055 kPa
427.5 K | 0.004571 ± 0.00091 kPa and 0.003467 ± 0.00069 kPa
428 K | 0.003236 ± 0.00065 kPa
428.5 K | 0.003388 ± 0.00068 kPa and 0.004677 ± 0.00094 kPa
429 K | 0.005248 ± 0.001 kPa and 0.005129 ± 0.001 kPa
430 K | 0.004365 ± 0.00087 kPa and 0.005248 ± 0.001 kPa and 0.003311 ± 0.00066 kPa
430.5 K | 0.006026 ± 0.0012 kPa
431 K | 0.003715 ± 0.00074 kPa
432 K | 0.006457 ± 0.0013 kPa and 0.006761 ± 0.0014 kPa
432.5 K | 0.004365 ± 0.00087 kPa
433 K | 0.007079 ± 0.0014 kPa
434 K | 0.006026 ± 0.0012 kPa and 0.005495 ± 0.0011 kPa
435.5 K | 0.007943 ± 0.0016 kPa
436 K | 0.005623 ± 0.0011 kPa and 0.008318 ± 0.0017 kPa and 0.005495 ± 0.0011 kPa
437 K | 0.008913 ± 0.0018 kPa
438 K | 0.007586 ± 0.0015 kPa
439 K | 0.01 ± 0.002 kPa
440 K | 0.01096 ± 0.0022 kPa and 0.01072 ± 0.0021 kPa
441 K | 0.00871 ± 0.0017 kPa and 0.007762 ± 0.0016 kPa
